The test concerns the target T1, hGPR119 (Homo sapiens, UniProt Q8TDV5).
T1 construct: expressed in transfected cells; host or cells: CHO
T1 sequence (Q8TDV5 1-335): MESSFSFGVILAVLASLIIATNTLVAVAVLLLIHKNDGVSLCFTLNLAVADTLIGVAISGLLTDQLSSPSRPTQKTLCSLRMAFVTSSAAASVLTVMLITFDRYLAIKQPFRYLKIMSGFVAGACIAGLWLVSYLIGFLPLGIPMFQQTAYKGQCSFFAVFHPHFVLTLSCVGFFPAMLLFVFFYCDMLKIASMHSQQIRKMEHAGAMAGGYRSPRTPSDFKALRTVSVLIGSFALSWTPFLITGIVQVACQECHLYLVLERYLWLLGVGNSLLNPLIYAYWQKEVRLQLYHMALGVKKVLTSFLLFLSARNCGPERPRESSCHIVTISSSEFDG
Kind of test: In vitro cyclic AMP assay (Cisbio dynamic 2 HTRF kit) in CHO-hGPR119 cells. It is filed as cell-based. The settings on record: cAMP; for activation at 1 µM: 1 h, compound at 1 μM, 60 min, read-out: Induction (% induction at 1 μM). (In general: In TR-FRET formats the signal depends on donor and acceptor labels being close together.)

The structures appear in SMILES notation.

One may read the EC50 as the concentration needed to bring the measured effect to its halfway point.

Turning to `CC(C)c1noc(N2CC[C@@H](COc3nc4ccc(-c5ccc(S(C)(=O)=O)cc5)nc4s3)[C@@H](F)C2)n1` [Compound 1128, 5-((3R,4S)-3-fluoro-4-(((5-(4-(methylsulfonyl)phenyl)thiazolo[5,4-b]pyridin-2-yl)oxy)methyl)piperidin-1-yl)-3-isopropyl-1,2,4-oxadiazole], the activation at 1 µM was found to be 10%. Turning to `CC(C)c1noc(N2CC[C@@H](COc3nc4ccc(-c5ccc(S(C)(=O)=O)cc5)nc4s3)[C@H](F)C2)n1` [Compound 1129, 5-((3S,4S)-3-fluoro-4-(((5-(4-(methylsulfonyl)phenyl)thiazolo[5,4-b]pyridin-2-yl)oxy)methyl)piperidin-1-yl)-3-isopropyl-1,2,4-oxadiazole], the activation at 1 µM turned out to be 5%. On to `CC(C)c1noc(N2CCC(OC(C)c3nc4ccc(-c5ccc(S(C)(=O)=O)cc5)nc4s3)CC2)n1` (centres unmarked) [Compound 1130, 3-isopropyl-5-(4-(1-(5-(4-(methylsulfonyl)phenyl)thiazolo[5,4-b]pyridin-2-yl)ethoxy)piperidin-1-yl)-1,2,4-oxadiazole], for which the activation at 1 µM was found to be 5%.

With `CC(Oc1nc2ccc(-c3ccc(S(C)(=O)=O)cc3)nc2s1)C1CCN(c2nc(C(F)(F)F)no2)CC1` (centres unmarked) [Compound 1131, 5-(4-(1-((5-(4-(methylsulfonyl)phenyl)thiazolo[5,4-b]pyridin-2-yl)oxy)ethyl)piperidin-1-yl)-3-(trifluoromethyl)-1,2,4-oxadiazole], the activation at 1 µM came to 40%. Regarding `CC(C)c1noc(N2CCC(C(C)Oc3nc4ccc(-c5ccnc(Cl)c5)nc4s3)CC2)n1` (centres unmarked) [Compound 1132, 2-(1-(1-(3-isopropyl-1,2,4-oxadiazol-5-yl)piperidin-4-yl)ethoxy)-5-(2-chloropyridin-4-yl)thiazolo[5,4-b]pyridine], the activation at 1 µM came to 38%. Take `CC(C)c1noc(N2CCC([C@H](C)Oc3nc4ccc(-c5cnc(S(C)(=O)=O)nc5)nc4s3)CC2)n1` [Compound 1133, 2-((S)-1-(1-(3-isopropyl-1,2,4-oxadiazol-5-yl)piperidin-4-yl)ethoxy)-5-(2-(methylsulfonyl)pyrimidin-5-yl)thiazolo[5,4-b]pyridine]: the activation at 1 µM was found to be 55%. `CC(C)c1noc(N2CCC(C(C)Oc3nc4ccc(-c5ccnnc5)nc4s3)CC2)n1` (centres unmarked) [Compound 1134, 3-isopropyl-5-(4-(1-((5-(pyridazin-4-yl)thiazolo[5,4-b]pyridin-2-yl)oxy)ethyl)piperidin-1-yl)-1,2,4-oxadiazole]: the activation at 1 µM was 40%. For the molecule `C[C@H](Oc1nc2ccc(-c3ccc(S(C)(=O)=O)nc3)nc2s1)C1CCN(c2ncc(Cl)cn2)CC1` [Compound 1136, 2-((S)-1-(1-(5-chloropyrimidin-2-yl)piperidin-4-yl)ethoxy)-5-(6-(methylsulfonyl)pyridin-3-yl)thiazolo[5,4-b]pyridine], the activation at 1 µM was determined as 82% and the half-maximal effective concentration (EC50) lay in the range of 100 to 500 nM. Consider `CC(Oc1nc2ccc(-c3ccc(S(C)(=O)=O)nc3)nc2s1)C1CCN(c2ncc(C3CC3)cn2)CC1` (centres unmarked) [Compound 1137, 2-(1-(1-(5-cyclopropylpyrimidin-2-yl)piperidin-4-yl)ethoxy)-5-(6-(methylsulfonyl)pyridin-3-yl)thiazolo[5,4-b]pyridine], for which the activation at 1 µM stood at 73%.

`CC(=O)N(C)c1ncc(-c2ccc3nc(OC(C)C4CCN(c5nc(C(C)C)no5)CC4)sc3n2)cn1` (centres unmarked) [Compound 1139, N-(5-(2-(1-(1-(3-isopropyl-1,2,4-oxadiazol-5-yl)piperidin-4-yl)ethoxy)thiazolo[5,4-b]pyridin-5-yl)pyrimidin-2-yl)-N-methylacetamide]: the activation at 1 µM was determined as 65%. The same measure, in the same setting: for `CC(C)c1noc(N2CCC([C@@H](C)Oc3nc4ccc(-c5ccc(S(C)(=O)=O)nc5)nc4s3)C2)n1` (stereo partly drawn) [Compound 1140, 2-((R)-1-(1-(3-isopropyl-1,2,4-oxadiazol-5-yl)pyrrolidin-3-yl)ethoxy)-5-(6-(methylsulfonyl)pyridin-3-yl)thiazolo[5,4-b]pyridine] the value was 4%; for `CC(C)c1noc(N2CCC([C@H](C)Oc3nc4ccc(-c5ccc(S(C)(=O)=O)nc5)nc4s3)C2)n1` (stereo partly drawn) [Compound 1141, 2-((S)-1-(-(3-isopropyl-1,2,4-oxadiazol-5-yl)pyrrolidin-3-yl)ethoxy)-5-(6-(methylsulfonyl)pyridin-3-yl)thiazolo[5,4-b]pyridine], 3%; for `CC(C)c1noc(N2CCC(C(C)Oc3nc4ccc(-c5ccc(Cl)nc5)nc4s3)CC2)n1` (centres unmarked) [Compound 1142, 2-(1-(1-(3-isopropyl-1,2,4-oxadiazol-5-yl)piperidin-4-yl)ethoxy)-5-(6-chloropyridin-3-yl)thiazolo[5,4-b]pyridine], 72%. The same measure, in the same setting: the figure for `CC(C)c1noc(N2CCC(C(C)Oc3nc4ccc(-c5ccc(N6CCNC6=O)nc5)nc4s3)CC2)n1` (centres unmarked) [Compound 1144, 1-(5-(2-(1-(1-(3-isopropyl-1,2,4-oxadiazol-5-yl)piperidin-4-yl)ethoxy)thiazolo[5,4-b]pyridin-5-yl)pyridin-2-yl)imidazolidin-2-one] is 69%.

As to `CC(C)c1noc(N2CCC(C(C)Oc3nc4ccc(-c5ccc(N6CCCC6=O)nc5)nc4s3)CC2)n1` (centres unmarked) [Compound 1146, 1-(5-(2-(1-(1-(3-isopropyl-1,2,4-oxadiazol-5-yl)piperidin-4-yl)ethoxy)thiazolo[5,4-b]pyridin-5-yl)pyridin-2-yl)pyrrolidin-2-one], the activation at 1 µM was determined as 61%. Same read-out and setting: for `CC(Oc1nc2ccc(-c3ccc(S(C)(=O)=O)cc3)nc2s1)C1CCN(c2cnc(Cl)cn2)CC1` (centres unmarked) [Compound 1148, 2-(1-(1-(5-chloropyrazin-2-yl)piperidin-4-yl)ethoxy)-5-(4-(methylsulfonyl)phenyl)thiazolo[5,4-b]pyridine] the value was 70%. The same measure, in the same setting: for `CCc1cnc(N2CCC(C(C)Oc3nc4ccc(-c5ccncc5)nc4s3)CC2)nc1` (centres unmarked) [Compound 1149, 2-(1-(1-(5-ethylpyrimidin-2-yl)piperidin-4-yl)ethoxy)-5-(pyridin-4-yl)thiazolo[5,4-b]pyridine] the value was 64%; for `CCCc1cnc(N2CCC(C(C)Oc3nc4ccc(-c5ccncc5)nc4s3)CC2)nc1` (centres unmarked) [Compound 1150, 2-(1-(1-(5-propylpyrimidin-2-yl)piperidin-4-yl)ethoxy)-5-(pyridin-4-yl)thiazolo[5,4-b]pyridine], 67%. Still for that read-out and setting: for `CC(Oc1nc2ccc(-c3ccc(S(C)(=O)=O)nc3)nc2s1)C1CCN(c2cnc(Cl)cn2)CC1` (centres unmarked) [Compound 1151, 2-(1-(1-(5-chloropyrazin-2-yl)piperidin-4-yl)ethoxy)-5-(6-(methylsulfonyl)pyridin-3-yl)thiazolo[5,4-b]pyridine] the value was 66%. Consider `CC(C)c1noc(N2CCC([C@H](C)Oc3nc4ccc(-c5ccc(C(F)(F)F)nc5)nc4s3)CC2)n1` [Compound 1152, 2-(1-(1-(3-isopropyl-1,2,4-oxadiazol-5-yl)piperidin-4-yl)ethoxy)-5-(6-(trifluoromethyl)pyridin-3-yl)thiazolo[5,4-b]pyridine], for which the activation at 1 µM was 77% and the EC50 was in the range of 50 to 100 nM. As for `CCCc1cnc(N2CCC([C@H](C)Oc3nc4ccc(-c5ccncc5)nc4s3)CC2)nc1` [Compound 1153, 2-((S)-1-(1-(5-propylpyrimidin-2-yl)piperidin-4-yl)ethoxy)-5-(pyridin-4-yl)thiazolo[5,4-b]pyridine], the activation at 1 µM stood at 85% and the EC50 lay within 100 to 500 nM. With `CCc1cnc(N2CCC([C@H](C)Oc3nc4ccc(-c5ccc(C(F)(F)F)nc5)nc4s3)CC2)nc1` [Compound 1154, (S)-2-(1-(1-(5-ethylpyrimidin-2-yl)piperidin-4-yl)ethoxy)-5-(6-(trifluoromethyl)pyridin-3-yl)thiazolo[5,4-b]pyridine], the activation at 1 µM was determined as 65% and the 50% effective concentration (EC50) was in the range of 25 to 50 nM.

`CCc1noc(N2CCC(C(C)Oc3nc4ccc(-c5ccc(S(C)(=O)=O)nc5)nc4s3)CC2)n1` (centres unmarked) [Compound 1156, 2-(1-(1-(3-ethyl-1,2,4-oxadiazol-5-yl)piperidin-4-yl)ethoxy)-5-(6-(methylsulfonyl)pyridin-3-yl)thiazolo[5,4-b]pyridine]: the activation at 1 µM is 54%. On the same count and under the same terms, for `Cc1cnc(N2CCC(C(C)Oc3nc4ccc(-c5ccc(S(C)(=O)=O)nc5)nc4s3)CC2)nc1` (centres unmarked) [Compound 1157, 2-(1-(1-(5-methylpyrimidin-2-yl)piperidin-4-yl)ethoxy)-5-(6-(methylsulfonyl)pyridin-3-yl)thiazolo[5,4-b]pyridine] the value was 81%. On the same count and under the same terms, the figure for `CC(C)c1noc(N2CCC(C(C)Oc3nc4ccc(-c5cnc(S(C)(=O)=O)cn5)nc4s3)CC2)n1` (centres unmarked) [Compound 1158, 2-(1-(1-(3-isopropyl-1,2,4-oxadiazol-5-yl)piperidin-4-yl)ethoxy)-5-(5-(methylsulfonyl)pyrazin-2-yl)thiazolo[5,4-b]pyridine] is 80%; for `CC(Oc1nc2ccc(-c3ccc(S(C)(=O)=O)nc3)nc2s1)C1CCN(c2ncc(C(F)(F)F)cn2)CC1` (centres unmarked) [Compound 1159, 2-(1-(1-(5-(trifluoromethyl)pyrimidin-2-yl)piperidin-4-yl)ethoxy)-5-(6-(methylsulfonyl)pyridin-3-yl)thiazolo[5,4-b]pyridine] it is 70%. As to `CCc1noc(N2CCC([C@H](C)Oc3nc4ccc(-c5ccc(S(C)(=O)=O)nc5)nc4s3)CC2)n1` [Compound 1160, 2-((S)-1-(1-(3-ethyl-1,2,4-oxadiazol-5-yl)piperidin-4-yl)ethoxy)-5-(6-(methylsulfonyl)pyridin-3-yl)thiazolo[5,4-b]pyridine], the activation at 1 µM was determined as 76% and the concentration for a half-maximal effect (EC50) lay within 25 to 50 nM.

Source of the values: patent US10526345B2, “Compounds as GPR119 agonists” (Mankind Pharma Ltd., priority 2016, dated 2020).
